Data reported in patent publication US9770026B2, “Substituted pyrimidine compound and uses thereof” (Shenyang Sinochem Agrochemicals R&D Co., Ltd., priority 2012, dated 2017).

Tests used:
rice blast = assay: microbe, parasite or virus in culture; assay type: cell-based; conditions: Pyricularia oryzae; for inhibition at 25 ppm: read-out: inhibition rate against rice blast, 25 ppm, in vitro; for inhibition at 8.3 ppm: read-out: inhibition rate against rice blast, 8.3 ppm, in vitro
cucumber gray mold = assay: fungicidal activity in vitro (inhibition rate) against cucumber gray mold; assay type: cell-based; conditions: 25 ppm, in vitro; read-out: inhibition rate against cucumber gray mold
Diamond back moth = assay: insecticidal activity against diamond back moth, airbrush spray; assay type: in vivo; conditions: for pest or weed control at 600 µg/mL / pest or weed control at 10 µg/mL / pest or weed control at 100 µg/mL: 72 h; for pest or weed control at 10 µg/mL: 10 mg/L; for pest or weed control at 100 µg/mL: 100 mg/L
How it was run: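 Airbrush leaf-disc spray test: both faces of 2 cm cabbage discs received 0.5 ml of test solution at 0.7 kg/cm^2. Solutions were made in acetone:methanol (1:1) and brought to concentration with 0.1% Tween 80 in water. Ten second-instar larvae per disc, triplicates, were held at 25° C and 60˜70% R.H., with mortality recorded at 72 hrs.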

armyworm = assay: bioactivity test against armyworm, airbrush spray; assay type: in vivo; conditions: for pest or weed control at 600 µg/mL / pest or weed control at 10 µg/mL / pest or weed control at 100 µg/mL: 72 h, read-out: Insecticidal activity against armyworm (%); for pest or weed control at 10 µg/mL: 10 mg/L; for pest or weed control at 100 µg/mL: 100 mg/L
[1] = system: Green peach aphids (Myzus Persicae Sulzer); assay: bioactivity test against green peach aphid, airbrush foliar spray; assay type: in vivo; conditions: contrastive test; for pest or weed control at 2.5 µg/mL: 2.5 mg/L; for pest or weed control at 5 µg/mL: 5 mg/L; for pest or weed control at 10 µg/mL: 10 mg/L; for pest or weed control at 100 µg/mL: 100 mg/L
How it was run: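 Aphids (15-30 per cabbage leaf disc) on moist filter paper were airbrush-sprayed at 10 psi, 0.5 mL, with compound from acetone:methanol (1:1) diluted in water with 0.1% tween 80. Held at 25±1 C, 60±5% RH; survivors counted after 48 hrs to give death rates.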

carmine spider mite = assay: bioactivity test against carmine spider mite, airbrush spray; assay type: in vivo; conditions: contrastive test; for pest or weed control at 600 µg/mL / pest or weed control at 10 µg/mL / pest or weed control at 100 µg/mL: Tetranychus cinnabarinus, 72 h, read-out: Insecticidal activity against carmine spider mite (% ); for pest or weed control at 10 µg/mL: 10 mg/L; for pest or weed control at 100 µg/mL: 100 mg/L
How it was run: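 Broadbean seedlings infested with adult mites were sprayed with compound (acetone/methanol stock diluted in 0.1% Tween 80 water) by airbrush at 0.7 kg/cm^2, 0.5 ml. Three replicates were run. Mortality was scored after 72 hrs.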

corn rust = assay: protectant activity in vivo against corn rust; conditions: Zea mays, 168 h, protectant activity; for pest or weed control at 100 µg/mL: read-out: control effect against corn rust (%), 100 mg/L; for pest or weed control at 400 µg/mL: read-out: control effect against corn rust (%), 400 mg/L; for pest or weed control at 6.25 µg/mL: read-out: control effect against corn rust (%), 6.25 mg/L; for pest or weed control at 25 µg/mL: read-out: control effect against corn rust (%), 25 mg/L
wheat powdery mildew = assay: protectant activity in vivo against wheat powdery mildew; conditions: protectant activity; for pest or weed control at 100 µg/mL / pest or weed control at 400 µg/mL / pest or weed control at 6.25 µg/mL / pest or weed control at 25 µg/mL: Triticum aestivum, 168 h; for pest or weed control at 100 µg/mL: read-out: control effect against wheat powdery mildew (%), 100 mg/L; for pest or weed control at 400 µg/mL: read-out: control effect against wheat powdery mildew (%), 400 mg/L; for pest or weed control at 6.25 µg/mL: read-out: control effect against wheat powdery mildew (%), 6.25 mg/L; for pest or weed control at 25 µg/mL: read-out: control effect against wheat powdery mildew (%), 25 mg/L
cucumber downy mildew = assay: protectant activity in vivo against cucumber downy mildew; conditions: protectant activity; for pest or weed control at 25 µg/mL / pest or weed control at 50 µg/mL / pest or weed control at 100 µg/mL / pest or weed control at 400 µg/mL: Cucumis sativus, 168 h; for pest or weed control at 25 µg/mL: read-out: control effect against cucumber downy mildew (%), 25 mg/L; for pest or weed control at 50 µg/mL: read-out: control effect against cucumber downy mildew (%), 50 mg/L; for pest or weed control at 100 µg/mL: read-out: control effect against cucumber downy mildew (%), 100 mg/L; for pest or weed control at 400 µg/mL: read-out: control effect against cucumber downy mildew (%), 400 mg/L
[2] = Myzus persicae, foliar, 48 h, read-out: Insecticidal activity against peach aphid (%)
[3] = Myzus persicae, foliar, 48 h, 600 mg/L, read-out: Insecticidal activity against peach aphid (%)

Compound | inhibition at 25 ppm (rice blast) | inhibition at 25 ppm (cucumber gray mold) | pest or weed control at 600 µg/mL (Diamond back moth; 600 mg/L) | pest or weed control at 600 µg/mL (armyworm; 600 mg/L) | pest or weed control at 5 µg/mL [1, 2] | pest or weed control at 10 µg/mL [1, 2] | pest or weed control at 100 µg/mL [1, 2] | pest or weed control at 600 µg/mL [1, 3] | pest or weed control at 600 µg/mL (carmine spider mite; 600 mg/L) | pest or weed control at 100 µg/mL (corn rust) | pest or weed control at 400 µg/mL (corn rust) | pest or weed control at 100 µg/mL (wheat powdery mildew) | pest or weed control at 400 µg/mL (wheat powdery mildew) | pest or weed control at 10 µg/mL (Diamond back moth) | pest or weed control at 100 µg/mL (Diamond back moth) | pest or weed control at 10 µg/mL (carmine spider mite) | pest or weed control at 100 µg/mL (carmine spider mite) | pest or weed control at 6.25 µg/mL (corn rust) | pest or weed control at 25 µg/mL (corn rust) | pest or weed control at 6.25 µg/mL (wheat powdery mildew) | further results
CC(Cl)c1ncnc(NCCc2ccc(O)cc2)c1Cl (stereo not drawn) [CK4, reference compound] | < 50% | 0% | 0% | 40% | 41% | 64% | 100% | 100% | 75% | 0% | 0% | 0% | 40% | – | – | – | – | – | – | – | pest or weed control at 2.5 µg/mL [1, 2]: 0%
CCc1ncnc(OCCc2ccc(Oc3ccccc3)cc2)c1Cl [CK13, reference compound] | 0% | 0% | 67% | 86% | 0% | 83% | 98% | 100% | 100% | 0% | 100% | 0% | 40% | 0% | 16% | 0% | 0% | 0% | 0% | 0% | pest or weed control at 10 µg/mL (armyworm): 0%; pest or weed control at 100 µg/mL (armyworm): 0%; pest or weed control at 25 µg/mL (wheat powdery mildew): 0%; pest or weed control at 25 µg/mL (cucumber downy mildew): 0%; pest or weed control at 50 µg/mL (cucumber downy mildew): 0%; pest or weed control at 100 µg/mL (cucumber downy mildew): 25%; pest or weed control at 400 µg/mL (cucumber downy mildew): 85%
CCc1ncnc(OCCc2ccc(OCc3ccccc3)cc2)c1Cl [CK14, reference compound] | – | 0% | 67% | 0% | – | 0% | 70% | 100% | 100% | 20% | 100% | 10% | 85% | 0% | 10% | 6% | 33% | 0% | 0% | 0% | inhibition at 8.3 ppm (rice blast): 0%; pest or weed control at 25 µg/mL (wheat powdery mildew): 0%; pest or weed control at 25 µg/mL (cucumber downy mildew): 0%; pest or weed control at 50 µg/mL (cucumber downy mildew): 0%; pest or weed control at 100 µg/mL (cucumber downy mildew): 40%; pest or weed control at 400 µg/mL (cucumber downy mildew): 98%
CCc1ncnc(OC(CC)c2ccc(Oc3ccc(C(F)(F)F)cn3)cc2)c1Cl (stereo not drawn) [CK15, reference compound] | 0% | 0% | 17% | 0% | – | 0% | 40% | 69% | 59% | 85% | 95% | 85% | 95% | 0% | 15% | 0% | 0% | 0% | 30% | 0% | pest or weed control at 25 µg/mL (wheat powdery mildew): 10%; pest or weed control at 25 µg/mL (cucumber downy mildew): 0%; pest or weed control at 50 µg/mL (cucumber downy mildew): 0%; pest or weed control at 100 µg/mL (cucumber downy mildew): 15%; pest or weed control at 400 µg/mL (cucumber downy mildew): 95%
CC(Cl)c1ncnc(NCCc2ccc(Oc3ccc(C(F)(F)F)cc3)cc2)c1Cl (stereo not drawn) [CK20, reference compound] | < 50% | < 50% | 57% | – | – | – | – | – | 100% | 70% | 100% | 30% | 100% | – | – | – | 72% | 0% | 0% | 0% | pest or weed control at 10 µg/mL (armyworm): 0%; pest or weed control at 25 µg/mL (wheat powdery mildew): 0%; pest or weed control at 25 µg/mL (cucumber downy mildew): 0%; pest or weed control at 50 µg/mL (cucumber downy mildew): 0%; pest or weed control at 100 µg/mL (cucumber downy mildew): 10%; pest or weed control at 400 µg/mL (cucumber downy mildew): 100%
CC(Cl)c1ncnc(NCCc2ccc(Oc3ncc(C(F)(F)F)cc3Cl)cc2)c1Cl (stereo not drawn) [CK21, reference compound] | 0% | < 50% | 80% | 0% | 19% | 35% | 98% | 100% | 0% | – | 85% | – | 0% | 10% | 25% | – | – | – | – | – | pest or weed control at 2.5 µg/mL [1, 2]: 0%
Cc1ncnc(NCc2ccc(Oc3ncc(C(F)(F)F)cc3Cl)cc2)c1Cl [CK32, reference compound] | < 50% | 0% | – | – | – | – | – | – | – | – | – | – | – | – | – | 0% | 22% | – | – | – | Insecticidal activity against diamond back moth (%) (Diamond back moth; 600 mg/L): 0%; Insecticidal activity against armyworm (%) (armyworm; 600 mg/L): 0%; Insecticidal activity against peach aphid (%) ([1]; 600 mg/L): 0%; Insecticidal activity against carmine spider mite (% ) (carmine spider mite; 600 mg/L): 91%; control effect against wheat powdery mildew (%) (wheat powdery mildew; 400 mg/L): 0%; control effect against cucumber downy mildew (%) (cucumber downy mildew; 400 mg/L): 60%
CC(Cl)c1ncnc(NCCc2ccc(Oc3ncc(Cl)cc3Cl)cc2)c1Cl (stereo not drawn) [CK45, reference compound] | 0% | < 50% | 86% | 0% | 39% | 55% | 98% | 100% | 0% | – | 80% | – | 0% | 0% | 12% | – | – | – | – | – | pest or weed control at 1.25 µg/mL ([1]; Myzus persicae, foliar, 48 h, 1.25 mg/L, read-out: Insecticidal activity against peach aphid (%)): 0%; pest or weed control at 2.5 µg/mL [1, 2]: 26%
Cc1ncnc(NC(C)c2ccc(Oc3ccc(C(F)(F)F)cc3)cc2)c1Cl (stereo not drawn) [CK46, reference compound] | < 50% | 0% | 100% | 71% | – | 0% | 5% | 100% | 100% | 0% | 40% | – | – | 0% | 10% | 28% | 63% | 0% | 0% | – | inhibition at 8.3 ppm (rice blast): 0%; pest or weed control at 10 µg/mL (armyworm): 0%; pest or weed control at 100 µg/mL (armyworm): 0%
